# Results as given in US20070166356A1, “Food supplement for animals, comprising an olfactory additive” (ADISSEO IRELAND LIMITED, priority 2004, published 2007).
# Test system: turkey poults of stock BUT 9
# Test: Free-choice feed consumption test in 6 day turkey poults
# Format: in vivo
# Details: per cage of 5 turkey poults
# Text: Test item no. 2 therefore comprises 0.05% of olfactory additive for 99.95% of methionine hydroxyl-analog. The test items are incorporated into a mixture of maize and soya, which is used as basic feed. The experimental plan is the following: [table] 150 turkey poults of stock BUT 9 are selected and placed in cages fitted out with a water bowl and two feeders with a capacity of about 0.3 kg. 5 turkey poults are placed per cage. The animals receive during the pre-experimental period (i.e. from D0to D6, 8.00am), an identical standard starting feed. During the experimental phase (i.e. D6 from 8am to 5pm), the animals are separated into three groups 10 A, B and C. For each group and each cage of this group, the animals have the choice between two test items. For example the animals of group A may choose between test item no. 3 and test item no. 1. Feeding is ad libitum with checking of consumption at […]. Furthermore, at each measuring time, the two feeders are interchanged in order to prevent the animals from being accustomed to the positioning of the feeders. […] The illustrated consumption is the consumption per cage, i.e. for 5 turkey poults. This consumption satisfies the following formula: (weight of the feeder at the end of the period)-(weight of the feeder at the beginning of the period). Averages are performed for each group over 12 cages.
smiles,measurement,setting,value
"CSCC[C@H](N)C(=O)O [Test item no. 3, methionine]","Consumption, Average","T0 + 1 h, group A: choice test item no. 3 (0.2%) vs no. 1 (0.23%)",6.8 g
same,"Consumption, Average","T0 + 1 h, group B: choice test item no. 3 (0.2%) vs no. 2 (0.23%), no. 2 = hydroxy analog + 0.5 g/kg olf. additive",9.1 g
same,"Consumption, Average","T0 + 3 h, group A: choice test item no. 3 (0.2%) vs no. 1 (0.23%)",15.5 g
same,"Consumption, Average","T0 + 3 h, group B: choice test item no. 3 (0.2%) vs no. 2 (0.23%)",14.9 g
same,"Consumption, Average","T0 + 5 h, group A: choice test item no. 3 (0.2%) vs no. 1 (0.23%)",23.3 g
same,"Consumption, Average","T0 + 5 h, group B: choice test item no. 3 (0.2%) vs no. 2 (0.23%)",22.6 g
same,"Consumption, Average","T0 + 7 h, group A: choice test item no. 3 (0.2%) vs no. 1 (0.23%)",30.3 g
same,"Consumption, Average","T0 + 7 h, group B: choice test item no. 3 (0.2%) vs no. 2 (0.23%)",30.0 g
same,"Consumption, Average","T0 + 9 h, group A: choice test item no. 3 (0.2%) vs no. 1 (0.23%)",37.7 g
same,"Consumption, Average","T0 + 9 h, group B: choice test item no. 3 (0.2%) vs no. 2 (0.23%)",36.8a g
